Laboratory results published in article PMC12257540, “From Inhibitors to PET: SAR-Based Development of [^18F]SK60 for mIDH1 Imaging” (Journal of Medicinal Chemistry, 2025).
Several values for one entry are separate records, joined by “and”; a condition that tells them apart may be missing. Identical values can stand only once.

Columns and labels:
IDH1R132H–U251 cells = experiment: In vitro cell uptake of [18F]SK60 in IDH1R132H-U251 cells; type: cell-based, Human; conditions: 240 min incubation
Experimental: Human U251 glioblastoma cells, stably transfected and overexpressing either wild-type IDH1 (IDH1-U251) or IDH1R132H (IDH1R132H–U251), were obtained from Jaqueline Kessler and Dirk Vordermark (Department of Radiotherapy, Martin Luther University Halle-Wittenberg, Halle/Saale, Germany). Cells were grown in RPMI 1640 medium (10% FCS), supplemented with puromycin, to ensure the cultivation of transfected cells only.
The IDH1-U251 and IDH1R132H–U251 cells were seeded at 4,00,000 cells/mL in a 24-well cell culture plate 1 day before the experiment. The medium was replaced by 400 μL/well, and 4 μL of a 100-x stock solution of the respective inhibitor in 10% DMSO or vehicle (10% DMSO) was added about 2 h before the experiment. The experiment was started with the addition of 100 μL of [ ^ 18 F]-SK60 (0.477 ± 0.002 MBq/mL; 4.86 ± 0.33 nM) diluted in cell culture medium per well, and the well plates were incubated in a humidified-air atmosphere incubator containing 5% CO2 at 37 °C for various times. The incubation was stopped by aspiration of the supernatant and washing the cell layers twice with prechilled PBS (500 μL/well). […] The concentrations of surface-bound and internalized activities per well were calculated as a percentage of the applied dose per well and normalized to the protein concentration per well (% AD/μg protein). […]

P-gp efflux transporter = P-gp efflux transporter (Mus musculus, UniProt P21447); experiment: Efflux transporter P-gp substrate study (PET, cyclosporine A pretreatment); conditions: cyclosporine A 50 mg/kg i.v. 30 min before radioligand
Experimental: To investigate the role of P-gp, mice were treated with cyclosporine A, an inhibitor of the P-gp efflux transporter.
For the time of the experiments, female CD-1 mice (n = 4; 8–10 weeks; 37–40 g) were kept in a dedicated climatic chamber with free access to water and food under a 12:12 h dark: light cycle at a constant temperature (24 °C). The animals were anesthetized (Anaesthesia Unit U-410, agntho’s, Lidingö, Sweden) with isoflurane (2.0%, 300 mL/min) delivered in a 20% oxygen/80% air mixture (Gas Blender 100 Series, MCQ instruments, Rome, Italy) and their body temperature maintained at 37 °C with a thermal bed system. […] Each PET image was corrected for random coincidences, dead time, scatter, and attenuation (AC) based on a whole body (WB) MR scan. The reconstruction parameters for the list mode data were 3D-ordered subset expectation maximization (OSEM), 4 iterations, 6 subsets, energy window: 400–600 keV, coincidence mode: 1–5, ring difference: 81. The PET data were collected by a continuous WB scan during the entire investigation. […] The brain region was identified using the mouse brain atlas template Ma-Benveniste-Mirrione-FDG. The activity data are expressed as the SUVmean of the overall ROI.

[1] = In vivo metabolism in naïve mice (radio-RP-HPLC and radio-MLC of plasma and brain); design: species or system CD-1 mice; conditions: 30 min p.i., i.v.; for parent radioligand fraction in brain: mouse brain; for parent radioligand fraction in plasma: mouse plasma
Experimental: The metabolic stability of [ ^ 18 F]-SK60 was investigated ex vivo by radio-RP-HPLC and radio-micellar-HPLC (MLC) analyses of plasma and brain samples obtained from naïve female mice (n = 3) at 30 min post intravenous injection (p.i.). For the preparation of the RP-HPLC samples, two solvent systems MeCN/water (9/1; v/v) and MeOH/water (9/1; v/v) were tested for activity extraction from the plasma and brain samples. With both systems, recoveries of higher than 95% could be obtained. […] For the radio-MLC analyses, the brain and plasma samples were treated with sodium dodecyl sulfate and directly injected into the MLC system. Despite the slightly different elution profile compared to the RP-HPLC system caused by different separation mechanisms, the quantification of the peaks gave similar results (Figure B). Altogether, the results obtained with these two complementary systems indicate a high metabolic stability of [ ^ 18 F]-SK60 in mice without the formation of brain-penetrable radiometabolites.
[ ^ 18 F]-SK60 (24.3 ± 2.89 MBq) diluted in 200 μL of sterile isotonic saline was injected into the tail vein of restrained, awake mice. Thirty min after injection, animals were anesthetized with isoflurane, blood was collected from the retro-orbital plexus with a heparinized glass Pasteur pipet, and the anesthetized animal was sacrificed by cervical dislocation. Blood plasma was obtained by centrifugation of the whole blood (8000 rpm, 4 °C, 2 min). The brain was isolated, rapidly rinsed with 1 mL isotonic saline to remove superficial blood, and finally homogenized in 1 mL deionized water in an ice–water bath (Potter B. Braun, 1000 rpm, 10 strokes).
Protein precipitation and extraction were performed by using an ice-cold MeCN/water (9:1 v/v) or MeOH/water (9:1 v/v) mixture at a 4:1 (v/v) solvent-to-sample ratio for plasma or brain homogenates. Samples were vortexed for 3 min, equilibrated on ice for 5 min, and centrifuged at 10,000 rpm for 5 min. […] Combined supernatants were concentrated under nitrogen at 75 °C to ∼100 μL and analyzed via radio-HPLC using a Reprosil-Pur 120 C18-AQ column with a gradient MeCN/20 mM NH4OAcaq (pH 6.8) elution (gradient: eluent A 10% MeCN/20 mM NH4OAcaq.; eluent B 90% MeCN/20 mM NH4OAcaq.; 0–5 min 100% A, 5–17 min up to 100% B, 17–26 min 100% B, 26–27 min up to 100% A, 27–30 min 100% A). […]
For the preparation of the MLC samples, mouse plasma (20–50 μL, 2–3 kBq) was dissolved in 200 μL of 200 mM aqueous sodium dodecyl sulfate (SDS) and injected into the MLC system. […] The MLC system consisted of a JASCO PU-980 pump, an AS-2055Plus autoinjector with a 2 mL sample loop, and a UV-1575 detector coupled with a γ radioactivity HPLC detector (Gabi Star, raytest Isotopenmessgeräte GmbH; Straubenhardt; Germany). […]

Chain of P-gp efflux transporter (P21447 whole entry): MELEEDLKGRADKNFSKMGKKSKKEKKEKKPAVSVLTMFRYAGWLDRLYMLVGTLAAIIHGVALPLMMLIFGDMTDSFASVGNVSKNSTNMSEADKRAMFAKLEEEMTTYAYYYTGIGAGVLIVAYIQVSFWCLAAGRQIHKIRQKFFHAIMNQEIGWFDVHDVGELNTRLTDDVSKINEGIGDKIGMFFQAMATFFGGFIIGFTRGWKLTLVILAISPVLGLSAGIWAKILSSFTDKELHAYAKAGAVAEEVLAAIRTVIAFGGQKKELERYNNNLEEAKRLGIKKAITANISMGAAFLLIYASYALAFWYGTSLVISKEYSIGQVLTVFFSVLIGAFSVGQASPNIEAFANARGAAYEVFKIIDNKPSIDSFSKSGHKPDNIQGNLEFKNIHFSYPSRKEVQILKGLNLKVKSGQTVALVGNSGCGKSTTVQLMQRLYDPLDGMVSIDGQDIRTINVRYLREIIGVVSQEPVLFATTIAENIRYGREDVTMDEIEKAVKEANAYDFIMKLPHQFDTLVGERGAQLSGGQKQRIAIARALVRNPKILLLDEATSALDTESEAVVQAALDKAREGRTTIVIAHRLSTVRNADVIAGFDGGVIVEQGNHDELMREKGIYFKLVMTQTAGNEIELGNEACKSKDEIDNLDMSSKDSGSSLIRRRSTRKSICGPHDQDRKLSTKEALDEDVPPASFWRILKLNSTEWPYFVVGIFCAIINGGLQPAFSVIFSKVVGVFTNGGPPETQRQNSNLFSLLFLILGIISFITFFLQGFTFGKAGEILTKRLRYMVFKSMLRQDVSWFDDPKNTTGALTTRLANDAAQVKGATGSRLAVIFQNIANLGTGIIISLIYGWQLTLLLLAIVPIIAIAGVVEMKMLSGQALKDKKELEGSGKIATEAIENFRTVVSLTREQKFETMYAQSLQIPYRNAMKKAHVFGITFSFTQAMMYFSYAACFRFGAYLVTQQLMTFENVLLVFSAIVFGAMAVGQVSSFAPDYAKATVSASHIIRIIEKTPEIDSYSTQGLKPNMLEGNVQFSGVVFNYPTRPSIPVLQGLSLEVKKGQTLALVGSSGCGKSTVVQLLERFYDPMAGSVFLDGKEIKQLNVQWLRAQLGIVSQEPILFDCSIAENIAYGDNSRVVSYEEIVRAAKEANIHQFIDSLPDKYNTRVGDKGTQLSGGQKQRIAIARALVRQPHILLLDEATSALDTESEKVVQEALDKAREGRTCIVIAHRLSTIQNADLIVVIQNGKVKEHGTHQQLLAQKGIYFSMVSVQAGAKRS

Cc1cccc(NC(=O)c2nn(Cc3ccc([18F])cc3)c3c2CN(C(=O)c2ccc[nH]2)CC3(C)C)c1 [[18F]SK60]
internalized radioligand (IDH1R132H–U251 cells): 0.089 ± 0.02 % AD/μg protein | increase of brain uptake after cyclosporine A compared to vehicle (P-gp efflux transporter): approximately 2.5 fold | parent radioligand fraction in brain ([1]; MLC): 100% | parent radioligand fraction in plasma ([1]; MLC): 79% | parent radioligand fraction in brain ([1]; RP-HPLC): 100% | parent radioligand fraction in plasma ([1]; RP-HPLC): 80 ± 2% and 80%
